Assay [1] is filed under the species Rattus norvegicus. Nature of the assay: Inhibition of rat liver alpha-glucosidase 2 assessed as conversion of Glc2Man7GlcNAc2 to Glc1Man7GlcNAc2 at 500 uM after 1.25 hrs.
The species named for assay [2] is Rattus norvegicus. As to the kind of experiment: Inhibition of rat liver alpha-glucosidase 2 assessed as conversion of Glc2Man7GlcNAc2 to Man7GlcNAc2 at 500 uM after 1.25 hrs.
Assay [3] addresses T1, Lysosomal acid glucosylceramidase (Homo sapiens, UniProt P04062).
T1 sequence (P04062 whole entry): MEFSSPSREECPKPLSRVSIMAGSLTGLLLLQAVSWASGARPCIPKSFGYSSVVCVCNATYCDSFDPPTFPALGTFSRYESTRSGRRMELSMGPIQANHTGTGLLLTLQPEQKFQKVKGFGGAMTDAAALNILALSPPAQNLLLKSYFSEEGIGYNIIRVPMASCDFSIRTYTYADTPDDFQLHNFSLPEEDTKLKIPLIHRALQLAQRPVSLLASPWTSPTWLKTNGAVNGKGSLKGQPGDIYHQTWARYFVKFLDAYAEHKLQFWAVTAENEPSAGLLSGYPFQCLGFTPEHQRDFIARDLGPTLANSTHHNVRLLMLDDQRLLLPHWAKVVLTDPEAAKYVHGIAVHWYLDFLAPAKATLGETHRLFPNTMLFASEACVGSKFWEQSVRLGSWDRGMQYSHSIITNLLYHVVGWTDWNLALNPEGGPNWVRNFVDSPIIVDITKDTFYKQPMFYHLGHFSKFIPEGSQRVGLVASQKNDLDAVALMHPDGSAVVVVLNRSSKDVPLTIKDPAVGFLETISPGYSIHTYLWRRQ
As to the kind of experiment: Inhibition of partially purified human placental beta-glucocerebrosidase after 15 to 60 mins.

Assay [4] concerns T2, Lysosomal acid glucosylceramidase (Homo sapiens), P04062 [N409S].
T2 sequence (whole entry): T1 sequence (P04062 whole entry) with N409S
Nature of the assay: Activation of beta-glucocerebrosidase in human N370S cells assessed as increase of residual activity at 0.05 to 100 uM after 3 days relative to control. It is filed as cell-based.

For assay [5], the system named is HL-60. Nature of the assay: Inhibition of endoplasmic reticulum alpha-glucosidase 1 in human HL-60 cells assessed as free oligosaccharide level at 500 uM after 24 hrs. It counts as cell-based.
The target of assay [6] is T3, Neutral alpha-glucosidase AB (Homo sapiens) (UniProt Q14697).
T3 sequence (whole entry): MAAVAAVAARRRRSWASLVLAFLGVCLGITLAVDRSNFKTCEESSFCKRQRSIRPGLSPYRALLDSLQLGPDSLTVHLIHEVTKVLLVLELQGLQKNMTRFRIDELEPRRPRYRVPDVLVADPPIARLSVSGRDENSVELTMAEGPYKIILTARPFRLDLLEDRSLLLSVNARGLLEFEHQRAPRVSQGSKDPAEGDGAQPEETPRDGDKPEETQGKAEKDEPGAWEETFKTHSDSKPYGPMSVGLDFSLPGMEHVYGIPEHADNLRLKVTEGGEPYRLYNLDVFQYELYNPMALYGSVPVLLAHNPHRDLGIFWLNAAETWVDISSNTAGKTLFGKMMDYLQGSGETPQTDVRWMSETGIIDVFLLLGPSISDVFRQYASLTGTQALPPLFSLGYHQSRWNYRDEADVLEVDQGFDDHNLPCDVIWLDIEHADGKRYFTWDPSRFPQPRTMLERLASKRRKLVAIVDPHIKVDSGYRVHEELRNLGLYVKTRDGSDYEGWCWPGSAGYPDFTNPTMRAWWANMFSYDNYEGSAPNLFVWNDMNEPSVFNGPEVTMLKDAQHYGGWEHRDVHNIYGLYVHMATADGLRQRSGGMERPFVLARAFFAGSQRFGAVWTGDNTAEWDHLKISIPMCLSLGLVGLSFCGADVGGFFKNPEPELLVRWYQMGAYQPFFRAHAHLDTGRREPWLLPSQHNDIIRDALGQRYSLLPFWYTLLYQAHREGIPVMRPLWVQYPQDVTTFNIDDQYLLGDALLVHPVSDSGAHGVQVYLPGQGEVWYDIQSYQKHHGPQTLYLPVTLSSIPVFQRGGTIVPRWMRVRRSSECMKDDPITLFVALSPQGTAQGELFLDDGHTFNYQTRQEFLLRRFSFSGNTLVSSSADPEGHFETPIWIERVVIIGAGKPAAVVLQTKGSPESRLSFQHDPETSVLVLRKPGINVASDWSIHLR
As to the kind of experiment: Inhibition of endoplasmic reticulum alpha-glucosidase 2 in human HL-60 cells assessed as free oligosaccharide level at 500 uM after 24 hrs. It is filed as cell-based.

For assay [7], the system named is T2, Lysosomal acid glucosylceramidase (Homo sapiens), P04062 [N409S]. As to the kind of experiment: Activation of beta-glucocerebrosidase in human N370S cells assessed as increase of residual activity at 0.05 to 100 uM after 3 days. It counts as cell-based.
In assay [8] the target is T3, Neutral alpha-glucosidase AB (Homo sapiens). As to the kind of experiment: Inhibition of endoplasmic reticulum alpha-glucosidase 2 in human HL-60 cells assessed as free oligosaccharide level at 50 uM after 24 hrs. It is filed as cell-based.
The species named for assay [9] is Rattus norvegicus. Nature of the assay: Inhibition of rat liver alpha-glucosidase 2 assessed as conversion of Glc2Man7GlcNAc2 to Glc1Man7GlcNAc2 at 100 uM after 1.25 hrs.
Assay [10] is filed under the species Rattus norvegicus. Nature of the assay: Inhibition of rat liver alpha-glucosidase 2 assessed as conversion of Glc2Man7GlcNAc2 to Man7GlcNAc2 at 100 uM after 1.25 hrs.
For assay [11], the system named is HL-60. Nature of the assay: Inhibition of endoplasmic reticulum alpha-glucosidase 1 in human HL-60 cells assessed as free oligosaccharide level at 50 uM after 24 hrs. It counts as cell-based.

Structures are written as SMILES. Residue numbers refer to the chain shown, from its start. Calls of active or inactive are those of the source. The rule behind the calls is not given here.

`OC[C@@H]1[C@@H](O)[C@H](O)[C@]2(O)CC[C@H]1N2` [NOEUROSTEGINE]: the inhibition result (in the assay listed under Rattus norvegicus [1]; in the assay listed under Rattus norvegicus [2]; in the assay on HL-60 [5]; in assay [6]) was “inactive” throughout. Also, the IC50 in [3] is 0.4 µM. Moreover, the fold change (FC) in [4] was 1.82.

In [3], `CCCCN1[C@@H]2CC[C@@]1(O)[C@@H](O)[C@H](O)[C@H]2CO` gave an IC50 of 100 µM. In addition, the outcome in assay [7] was inactive.

`O[C@@H]1[C@@H](O)[C@H](O)[C@]2(O)CC[C@H]1N2` [CALYSTEGINE B2] came in with a concentration for half-maximal inhibition (IC50) in [3] of 1 µM.

For `CCCCN1C[C@H](O)[C@@H](O)[C@H](O)[C@H]1CO`, the inhibition entry (in assay [8]; in the assay filed under Rattus norvegicus [9]; in the assay filed under Rattus norvegicus [10]; with HL-60 [11]) was “Active” throughout.

`CCCCCCCCCN1[C@@H]2CC[C@@]1(O)[C@@H](O)[C@H](O)[C@H]2CO` gave an IC50 in assay [3] of 60 µM. Besides, the result in assay [7] was inactive.

A word on the IC50: it is the concentration that gives 50% inhibition. High values mean weaker potency, low ones greater potency.

The values above are taken from ChEMBL document CHEMBL1681653, “Synthesis of N-alkylated noeurostegines and evaluation of their potential as treatment for Gaucher's disease” (Bioorg Med Chem Lett, 2011).
